In ChEMBL document CHEMBL4417639, “Nt5c2 inhibitors useful for the treatment of chemotherapy resistant acute lymphoblastic leukemia” (2018):
Calls of active or inactive are those of the source. The rule behind the calls is not given here.

Assays:
[1] = target: Cytosolic purine 5'-nucleotidase (Homo sapiens) (UniProt P49902); test: Inhibition of basal nucleotidase activity of recombinant NT5C2 (unknown origin) pre-incubated for 10 mins before IMP substrate addition and further incubated for 5 mins in absence of ATP by malachite green assay
[2] = target: Cytosolic purine 5'-nucleotidase (Homo sapiens) (UniProt P49902); test: Inhibition of nucleotidase activity of recombinant NT5C2 (unknown origin) pre-incubated for 10 mins before IMP substrate addition and further incubated for 5 mins in presence of 0.3 mM ATP by malachite green assay relative to control

Cytosolic purine 5'-nucleotidase (Homo sapiens), sequence (P49902 whole entry): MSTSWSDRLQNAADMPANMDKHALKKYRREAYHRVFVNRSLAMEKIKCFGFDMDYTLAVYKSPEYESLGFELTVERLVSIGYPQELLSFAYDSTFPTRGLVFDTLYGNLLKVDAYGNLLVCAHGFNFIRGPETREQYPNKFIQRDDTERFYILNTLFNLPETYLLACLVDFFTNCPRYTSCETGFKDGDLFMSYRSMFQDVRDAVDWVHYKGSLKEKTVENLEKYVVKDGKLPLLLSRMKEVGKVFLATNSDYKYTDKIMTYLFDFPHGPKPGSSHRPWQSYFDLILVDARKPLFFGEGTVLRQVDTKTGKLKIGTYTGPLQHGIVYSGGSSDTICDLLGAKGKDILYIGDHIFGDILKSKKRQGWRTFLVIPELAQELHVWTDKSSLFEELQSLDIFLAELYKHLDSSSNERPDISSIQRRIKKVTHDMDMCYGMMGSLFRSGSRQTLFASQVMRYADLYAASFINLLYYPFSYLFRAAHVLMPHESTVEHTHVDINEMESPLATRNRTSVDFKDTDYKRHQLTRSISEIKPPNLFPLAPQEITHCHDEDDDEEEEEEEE

| SMILES | inhibition [1] | inhibition [2] [%] |
| --- | --- | --- |
| Cc1cc(N2CCC(c3cc(CC(=O)O)n[nH]3)CC2)nc(N2CCCC2)n1 | Active | 62 |
| CCc1nc(N)nc(N2CCCOC(CN3CCOCC3)C2)c1C (stereo unspecified) | Active | 29 |
| Cc1nc(N2CCC(c3cc(CC(=O)O)n[nH]3)CC2)cc(-n2cccn2)n1 | Active | 49 |
| Nc1nc(N2CCOCC2)cc(N2CCC(c3cc(CC(=O)O)[nH]n3)CC2)n1 | Active | 85 |
| Nc1nc2c(c(NCCc3csc(N)n3)n1)CCCC2 | Active | 75 |

Now from value to compound:

| inhibition [1] | inhibition [2] [%] | SMILES |
| --- | --- | --- |
| Active | 42 | Nc1nc2c(c(N3CCc4nc(N)sc4C3)n1)CCCC2 |
| Active | 49 | CCc1c(C)nc(N)nc1NCCc1csc(N)n1 |
| Active | 54 | CCc1cc(NCCCc2csc(N)n2)nc(N)n1 |
